These results are taken from PubChem BioAssay AID1671204.

Each structure is given as a SMILES string.

The experiment concerns the target Tyrosine-protein kinase ABL1 (Homo sapiens) (UniProt P00519). Put plainly: ABL1 kinase inhibitors, dose response, biochemical, Z'-LYTE FRET, direct format, recombinant human (AID 1671204). Conditions: Z'-LYTE FRET kinase assay.

Chain of Tyrosine-protein kinase ABL1 (Homo sapiens) (P00519 whole entry, looked up): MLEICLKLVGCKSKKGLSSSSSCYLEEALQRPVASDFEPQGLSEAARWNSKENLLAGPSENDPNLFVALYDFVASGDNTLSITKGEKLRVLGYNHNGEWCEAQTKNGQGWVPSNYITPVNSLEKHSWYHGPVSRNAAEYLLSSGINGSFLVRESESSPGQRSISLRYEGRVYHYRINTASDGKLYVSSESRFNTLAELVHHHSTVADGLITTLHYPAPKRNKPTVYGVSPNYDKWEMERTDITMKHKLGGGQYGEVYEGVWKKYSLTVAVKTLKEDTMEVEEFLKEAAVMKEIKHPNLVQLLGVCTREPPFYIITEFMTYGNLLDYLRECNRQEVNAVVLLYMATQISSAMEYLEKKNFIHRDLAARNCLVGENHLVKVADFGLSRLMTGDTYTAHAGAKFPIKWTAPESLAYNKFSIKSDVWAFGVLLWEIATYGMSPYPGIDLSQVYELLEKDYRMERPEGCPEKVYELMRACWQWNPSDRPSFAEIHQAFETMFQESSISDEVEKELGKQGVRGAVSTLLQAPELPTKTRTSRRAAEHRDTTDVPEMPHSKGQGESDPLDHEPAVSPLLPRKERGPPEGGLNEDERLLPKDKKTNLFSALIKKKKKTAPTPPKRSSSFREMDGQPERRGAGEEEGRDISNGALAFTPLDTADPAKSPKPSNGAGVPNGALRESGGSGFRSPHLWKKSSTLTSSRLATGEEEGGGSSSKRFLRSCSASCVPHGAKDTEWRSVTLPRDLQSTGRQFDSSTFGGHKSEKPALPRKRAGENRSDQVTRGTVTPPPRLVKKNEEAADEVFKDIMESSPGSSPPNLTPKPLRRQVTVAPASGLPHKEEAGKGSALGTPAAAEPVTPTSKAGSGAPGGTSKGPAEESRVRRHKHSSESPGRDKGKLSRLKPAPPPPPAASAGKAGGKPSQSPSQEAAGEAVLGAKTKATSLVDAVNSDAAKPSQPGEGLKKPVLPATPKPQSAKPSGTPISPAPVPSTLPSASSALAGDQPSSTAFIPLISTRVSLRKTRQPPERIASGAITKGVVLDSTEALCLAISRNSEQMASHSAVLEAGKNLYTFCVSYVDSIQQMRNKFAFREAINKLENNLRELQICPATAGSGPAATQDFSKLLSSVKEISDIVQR

For `COc1cc2ncnc(Nc3cccc(Cl)c3)c2cc1OC`, the IC50 is 434 nM.
